How the values were obtained:
Type in all cases: physicochemical
[1] = Particle size distribution of the powder produced by high pressure cavitation (HPC) and spray drying; settings: dry powder after HPC followed by spray drying
Text: The suspension may be passed through a high pressure cavitation apparatus several times until the desired particle size and size distribution is achieved. […] The recirculation may, for example, be performed from 2-30 times (or cycles) depending upon the API. Preferred cycle ranges include from 5 to 25 and 15 to 25. […] As will be clear to those in the art, span is defined by the ratio ((Dv90−Dv10)/Dv50), with Dv being the diameter value at which a defined percentage of the particles (eg 10%, 50% or 90% in the equation) have a diameter equal to or less than the Dv value.

[2] = XRPD of the isolated product (polymorphic form after HPC and spray drying); settings: after HPC followed by spray drying
[3] = Amorphous content determined by dynamic vapour sorption (DVS); settings: after HPC followed by spray drying
[4] = TGA of the isolated product; settings: after HPC followed by spray drying
[5] = Detection of the anhydrous form by near infrared spectroscopy; settings: after HPC followed by spray drying

Dv10 [1]	Dv50 [1]	Dv90 [1]	span ((Dv90−Dv10)/Dv50) [1]	amorphous content [3]	TGA value [4]	anhydrous form [5]	SMILES	XRPD of the product isolated (polymorphic form retained) [2]
0.89 μm	1.95 μm	3.78 μm	1.5				C[C@@H]1C[C@H]2[C@@H]3C[C@H](F)C4=CC(=O)C=C[C@]4(C)[C@@]3(F)[C@@H](O)C[C@]2(C)[C@@]1(OC(=O)c1ccco1)C(=O)SCF [Fluticasone furoate]	substantially the same as the starting material
1.91 μm	3.97 μm	7.47 μm	1.4	below 1.1%	3.0%	not detected	C[C@@H]1C[C@H]2[C@@H]3CCC4=CC(=O)C=C[C@]4(C)[C@@]3(Cl)[C@@H](O)C[C@]2(C)[C@@]1(OC(=O)c1ccco1)C(=O)CCl [Mometasone furoate monohydrate]	substantially the same as claimed in U.S. Pat. No. 6,180,781B1
1.20 μm	2.45 μm	4.68 μm	1.4				CCC(=O)O[C@]1(C(=O)SCF)[C@H](C)C[C@H]2[C@@H]3C[C@H](F)C4=CC(=O)C=C[C@]4(C)[C@@]3(F)[C@@H](O)C[C@@]21C [Fluticasone propionate]	substantially the same as the starting material

SMILES	Dv10 [1]	Dv50 [1]	Dv90 [1]	span ((Dv90−Dv10)/Dv50) [1]	amorphous content [3]	TGA value [4]	anhydrous form [5]	XRPD of the product isolated (polymorphic form retained) [2]
C[N+]1(C)[C@@H]2C[C@@H](OC(=O)C(O)(c3cccs3)c3cccs3)C[C@H]1[C@@H]1O[C@@H]12 [Tiotropium bromide]	0.74 μm	2.90 μm	5.58 μm	1.7				
OCc1cc(C(O)CNCCCCCCOCCCCc2ccccc2)ccc1O (stereo not drawn) [Salmeterol xinafoate]	0.33 μm	1.37 μm	3.09 μm	2.0				substantially the same as the starting material

From patent US9956144B2, “Process for particle processing of active pharmaceutical ingredients” (HOVIONE INTER LIMITED, priority 2010, dated 2018)
